The values that follow come from patent US20040176468A1 (Wyeth, priority 1999, published 2004).

In this assay the target is NE uptake (Rattus norvegicus, UniProt Q63380). Nature of the assay: Neurotransmitter uptake inhibition: NE uptake, crude synaptosomal preparation. Type of assay: biochemical. The settings on record: rat cortex crude synaptosomal preparation; for IC50: 0.1 μM 3H-NE, 37° C. for 6 minutes. The procedure:
Male Sprague-Dawley rats (180-260 g, Charles River) were used in all neurochemical assays. Rats were housed in temperature-controlled quarters on a 12 hr light/12 hr dark cycle with free access to food and water.
Neurotransmitter Uptake Inhibition
Uptake experiments were performed using a crude synaptosomal preparation made from the brain tissue of adult male Sprague-Dawley rats. The cortex of 1 rat for NE and 5-HT uptake was removed on ice and homogenized in 20 volumes of 0.32 M sucrose/g tissue weight using a Potter-Elvehjem teflon homogenizer (3 strokes at 840 rpm). The homogenate was then centrifuged for 12 minutes at 1,000×g at 0-4° C. The resulting supernatant was decanted into a chilled glass beaker and kept on ice until assayed. Protein concentration was determined by the method of Lowry et al. (1).
For these experiments, all compounds were run in duplicate in concentrations of 0.003-30.0 μM. Each tube received buffer (790 μl in drug tubes, 800 μl in control tubes), 10 μl of drug or standard. (0.1 μM DMI for NE uptake and 3.0 μM zimelidine HCl for 5-HT uptake), 100 μl isotope (0.1 μM ^3H—NE and 0.05 μM ^14C-5-HT), and 100 μl tissue. Tubes were incubated at 37° C. for 6 minutes. Incubation was terminated by the addition of 2.5 ml buffer followed by vacuum filtration using a Brandel filtration manifold with Whatman GF/B glass fiber filters and a second wash with 2.5 ml buffer. Filters were added to 10 ml Hydrofluor, shaken for 15 minutes and counted in a Packard 460CD scintillation counter equipped with dual-label dpm data reduction. Results were expressed as pmol uptake/mg protein/min.

Counter-ions that a name gives are not always drawn.

Chain of NE uptake (Q63380 1-617): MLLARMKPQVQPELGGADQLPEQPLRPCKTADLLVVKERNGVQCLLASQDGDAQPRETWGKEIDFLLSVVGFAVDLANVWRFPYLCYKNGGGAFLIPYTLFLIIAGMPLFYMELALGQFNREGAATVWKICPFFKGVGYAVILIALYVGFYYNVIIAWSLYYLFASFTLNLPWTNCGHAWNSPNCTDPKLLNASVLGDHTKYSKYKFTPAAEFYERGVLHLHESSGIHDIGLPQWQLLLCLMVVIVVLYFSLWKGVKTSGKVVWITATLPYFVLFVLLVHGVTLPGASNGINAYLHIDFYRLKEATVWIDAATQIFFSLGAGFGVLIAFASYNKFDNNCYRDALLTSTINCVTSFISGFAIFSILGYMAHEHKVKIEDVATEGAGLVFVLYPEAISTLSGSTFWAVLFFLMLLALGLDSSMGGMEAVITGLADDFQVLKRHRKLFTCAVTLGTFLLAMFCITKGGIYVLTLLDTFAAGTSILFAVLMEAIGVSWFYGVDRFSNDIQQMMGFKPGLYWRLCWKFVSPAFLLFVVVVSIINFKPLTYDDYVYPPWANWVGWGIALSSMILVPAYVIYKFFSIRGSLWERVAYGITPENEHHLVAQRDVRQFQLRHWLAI

The inhibition is the percentage by which the read-out fell short of the control. A low value points to a weak effect. With `CN(C)CC(c1ccc(O)cc1)C1(O)CCCCC1` (racemic) [O-Desmethyl venlafaxine, 4-[1-(2-dimethylamino)-2-(1-hydroxycyclohexyl)-ethyl]-phenol], where the note is “at 0.3 μM”, the inhibition at 0.3 µM came out at 75%. By IC50 is commonly meant the concentration that inhibits the measured activity by half. `CN(C)C[C@H](c1ccc(O)cc1)C1(O)CCCCC1` [(+)O-Desmethyl venlafaxine, S (+)-4-[2-(Dimethylamino)-1-(1-hydroxycyclohexyl)ethyl]phenol fumarate hydrate salt] showed an IC50 of 720 nM. In turn, `CN(C)C[C@@H](c1ccc(O)cc1)C1(O)CCCCC1` [(−)O-Desmethyl venlafaxine, R(−)-4-[2-(Dimethylamino)-1-(1-hydroxycyclohexyl)ethyl]phenol fumarate hydrate salt] had an IC50 of 270 nM.
